# Tested on: K98450-129-R-PDC complex spheroid growth, percent test/control
# Assay: Anticancer human tumor K98450-129-R-PDC patient-derived colon adenocarcinoma cell line growth inhibition [RAS]
# Details: for IC50: curve of first compound; for viability, T/C: stronger effect = lower value
# Outline: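 Agents were tested in combination matrices in half-log decrements from a top concentration at or near clinical Cmax (10 microM if undetermined). Targets were multi-cell spheroids of tumour lines plus HUVEC and MSC stromal cells.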
# [1] = second compound 0.000949 µM, first compound 0.0316 µM
# [2] = second compound 0.000949 µM, first compound 0.1 µM
# [3] = second compound 0.000949 µM, first compound 0.316 µM
# [4] = second compound 0.000949 µM, first compound 1 µM
# [5] = second compound 0.000949 µM, first compound 3.16 µM
# [6] = second compound 0.000949 µM, first compound 10 µM
# [7] = second compound 0.003 µM, first compound 0.0316 µM
# [8] = second compound 0.003 µM, first compound 0.1 µM
# [9] = second compound 0.003 µM, first compound 0.316 µM
# [10] = second compound 0.003 µM, first compound 1 µM
# [11] = second compound 0.003 µM, first compound 3.16 µM
# [12] = second compound 0.003 µM, first compound 10 µM
# [13] = second compound 0.00949 µM, first compound 0.0316 µM
# [14] = second compound 0.00949 µM, first compound 0.1 µM
# [15] = second compound 0.00949 µM, first compound 0.316 µM
# [16] = second compound 0.00949 µM, first compound 1 µM
# [17] = second compound 0.00949 µM, first compound 3.16 µM
# [18] = second compound 0.00949 µM, first compound 10 µM
# [19] = second compound 0.03 µM, first compound 0.0316 µM
# [20] = second compound 0.03 µM, first compound 0.1 µM
# [21] = second compound 0.03 µM, first compound 0.316 µM
# [22] = second compound 0.03 µM, first compound 1 µM
# [23] = second compound 0.03 µM, first compound 3.16 µM
# [24] = second compound 0.03 µM, first compound 10 µM
# [25] = second compound 0.0949 µM, first compound 0.0316 µM
# [26] = second compound 0.0949 µM, first compound 0.1 µM
# [27] = second compound 0.0949 µM, first compound 0.316 µM
# [28] = second compound 0.0949 µM, first compound 1 µM
# [29] = second compound 0.0949 µM, first compound 3.16 µM
# [30] = second compound 0.0949 µM, first compound 10 µM
# [31] = second compound 0.3 µM, first compound 0.0316 µM
# [32] = second compound 0.3 µM, first compound 0.1 µM
# [33] = second compound 0.3 µM, first compound 0.316 µM
# [34] = second compound 0.3 µM, first compound 1 µM
# [35] = second compound 0.3 µM, first compound 3.16 µM
# [36] = second compound 0.3 µM, first compound 10 µM
# 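Note: spheroids exposed to agents for seven days before the viability readout.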
# 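Throughout, for viability, T/C: luminescence used as a proxy for viable cell amount.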
smiles,measurement,setting,value
CC(C)NCC(C(=O)N1CCN(c2ncnc3c2C(C)CC3O)CC1)c1ccc(Cl)cc1 (centres undefined) + CCn1c(-c2cccnc2C(C)OC)c2c3cc(ccc31)N1CCOC(CC(NC(=O)C(C(C)C)N(C)C(=O)C3(F)CCN(C(=O)C#CC(C)(C)N(C)C)CC3)C(=O)N3CCCC(N3)C(=O)OCC(C)(C)C2)C1,IC50,second compound 0.000949 µM,> 10000 nM
same,IC50,second compound 0.003 µM,> 10000 nM
same,IC50,second compound 0.00949 µM,< 31.6 nM
same,IC50,second compound 0.03 µM,< 31.6 nM
same,IC50,second compound 0.0949 µM,< 31.6 nM
same,IC50,second compound 0.3 µM,< 31.6 nM
same,"viability, T/C",[1],64.3%
same,"viability, T/C",[2],61.4%
same,"viability, T/C",[3],83.3%
same,"viability, T/C",[4],73.7%
same,"viability, T/C",[5],73%
same,"viability, T/C",[6],70.4%
same,"viability, T/C",[7],68.8%
same,"viability, T/C",[8],46.6%
same,"viability, T/C",[9],61%
same,"viability, T/C",[10],51.2%
same,"viability, T/C",[11],64.1%
same,"viability, T/C",[12],47%
same,"viability, T/C",[13],45.4%
same,"viability, T/C",[14],37.7%
same,"viability, T/C",[15],42.9%
same,"viability, T/C",[16],34.6%
same,"viability, T/C",[17],50.8%
same,"viability, T/C",[18],39.6%
same,"viability, T/C",[19],33%
same,"viability, T/C",[20],39%
same,"viability, T/C",[21],36.8%
same,"viability, T/C",[22],34%
same,"viability, T/C",[23],38.1%
same,"viability, T/C",[24],35%
same,"viability, T/C",[25],32.4%
same,"viability, T/C",[26],42.1%
same,"viability, T/C",[27],34.7%
same,"viability, T/C",[28],36.4%
same,"viability, T/C",[29],36%
same,"viability, T/C",[30],34.5%
same,"viability, T/C",[31],31.6%
same,"viability, T/C",[32],38.5%
same,"viability, T/C",[33],34.4%
same,"viability, T/C",[34],32.6%
same,"viability, T/C",[35],33.7%
same,"viability, T/C",[36],32.2%
CC1(O)CCCC1n1c(=O)c(C(F)F)cc2cnc(NC3CCN(S(C)(=O)=O)CC3)nc21 (centres undefined) + CCn1c(-c2cccnc2C(C)OC)c2c3cc(ccc31)N1CCOC(CC(NC(=O)C(C(C)C)N(C)C(=O)C3(F)CCN(C(=O)C#CC(C)(C)N(C)C)CC3)C(=O)N3CCCC(N3)C(=O)OCC(C)(C)C2)C1,IC50,second compound 0.000949 µM,4320 nM
same,IC50,second compound 0.003 µM,376 nM
same,IC50,second compound 0.00949 µM,< 31.6 nM
same,IC50,second compound 0.03 µM,< 31.6 nM
same,IC50,second compound 0.0949 µM,< 31.6 nM
same,IC50,second compound 0.3 µM,< 31.6 nM
same,"viability, T/C",[1],76.1%
same,"viability, T/C",[2],64%
same,"viability, T/C",[3],68.3%
same,"viability, T/C",[4],59.1%
same,"viability, T/C",[5],51.5%
same,"viability, T/C",[6],44.4%
same,"viability, T/C",[7],58.2%
same,"viability, T/C",[8],55.6%
same,"viability, T/C",[9],52.6%
same,"viability, T/C",[10],38.6%
same,"viability, T/C",[11],34.7%
same,"viability, T/C",[12],31%
same,"viability, T/C",[13],44.8%
same,"viability, T/C",[14],38.5%
same,"viability, T/C",[15],38.3%
same,"viability, T/C",[16],28.5%
same,"viability, T/C",[17],29.3%
same,"viability, T/C",[18],27.1%
same,"viability, T/C",[19],37.4%
same,"viability, T/C",[20],41.1%
same,"viability, T/C",[21],30.1%
same,"viability, T/C",[22],26.1%
same,"viability, T/C",[23],31.4%
same,"viability, T/C",[24],28.1%
same,"viability, T/C",[25],31.5%
same,"viability, T/C",[26],31.9%
same,"viability, T/C",[27],32.2%
same,"viability, T/C",[28],25.3%
same,"viability, T/C",[29],29.8%
same,"viability, T/C",[30],22.7%
same,"viability, T/C",[31],31.9%
same,"viability, T/C",[32],33.7%
same,"viability, T/C",[33],32.6%
same,"viability, T/C",[34],26.8%
same,"viability, T/C",[35],29.5%
same,"viability, T/C",[36],19.6%

# Reference: PubChem BioAssay AID2060891 (Molecular Pharmacology Branch, DTP, NCI, 2025)
